Source: patent US12662476B2, “Herbicidal thiazole compounds” (SYNGENTA CROP PROTECTION AG, priority 2019, dated 2026)

Legend:
Format in all cases: in vivo
[1] = test system: Amaranthus retoflexus (AMARE); assay: Post-emergence herbicidal glasshouse test; conditions: sprayed after 8 days cultivation, 250 g/ha, evaluated after 13 days, five-point scale
Experimental: (§1) Seeds of a variety of test species are sown in standard soil in pots Amaranthus retoflexus (AMARE), Echinochloa crus-galli (ECHCG), Setaria faberi (SETFA)). After cultivation for one day (pre-emergence) or after 8 days cultivation (post-emergence) under controlled conditions in a glasshouse (at 24/16° C., day/night; 14 hours light; 65% humidity), the plants are sprayed with an aqueous spray solution derived from the formulation of the technical active ingredient in acetone/water (50:50) solution containing 0.5% Tween™ 20 (polyoxyethylene sorbitan monolaurate, CAS RN 9005-64-5). Compounds are applied at 250 g/ha unless otherwise stated. The test plants are then grown in a glasshouse under controlled conditions in a glasshouse (at 24/16° C., day/night; 14 hours light; 65% humidity) and watered twice daily. After 13 days for pre- and post-emergence, the test is evaluated for the percentage damage caused to the plant. The biological activities are shown in the following table on a five-point scale (5=81-100%; 4=61-80%; 3=41-60%; 2=21-40%; 1=0-20%).

[2] = test system: Echinochloa crus-galli (ECHCG); assay: Post-emergence herbicidal glasshouse test; conditions: sprayed after 8 days cultivation, 250 g/ha, evaluated after 13 days, five-point scale
Experimental: as §1

Setaria faberi (SETFA) [3] = assay: Post-emergence herbicidal glasshouse test; conditions: sprayed after 8 days cultivation, 250 g/ha, evaluated after 13 days, five-point scale
Experimental: as §1

[4] = test system: Amaranthus retoflexus (AMARE); assay: Pre-emergence herbicidal glasshouse test; conditions: sprayed after one day cultivation, 250 g/ha, evaluated after 13 days, five-point scale
Experimental: as §1

[5] = test system: Echinochloa crus-galli (ECHCG); assay: Pre-emergence herbicidal glasshouse test; conditions: sprayed after one day cultivation, 250 g/ha, evaluated after 13 days, five-point scale
Experimental: as §1

Setaria faberi (SETFA) [6] = assay: Pre-emergence herbicidal glasshouse test; conditions: sprayed after one day cultivation, 250 g/ha, evaluated after 13 days, five-point scale
Experimental: as §1

SMILES | percentage damage caused to the plant, AMARE [1] | percentage damage caused to the plant, ECHCG [2] | percentage damage caused to the plant, SETFA (Setaria faberi (SETFA) [3]) | percentage damage caused to the plant, AMARE [4] | percentage damage caused to the plant, ECHCG [5] | percentage damage caused to the plant, SETFA (Setaria faberi (SETFA) [6])
FC(F)c1cc(-c2c(Br)cccc2Oc2ncc(Br)s2)on1 [Compound 1.024] | 5 (5=81-100%) | 5 (5=81-100%) | 5 (5=81-100%) | 4 (4=61-80%) | 5 (5=81-100%) | 4 (4=61-80%)
FC(F)c1cc(-c2c(Cl)cccc2Oc2nc(Cl)c(Cl)s2)on1 [Compound 1.032] | 5 (5=81-100%) | 2 (2=21-40%) | 4 (4=61-80%) | 5 (5=81-100%) | 1 (1=0-20%) | 1 (1=0-20%)
FC(F)c1cc(-c2c(Br)cccc2Oc2nc(C(F)F)c(Cl)s2)on1 [Compound 1.030] | 1 (1=0-20%) | 1 (1=0-20%) | 1 (1=0-20%) | 1 (1=0-20%) | 1 (1=0-20%) | 1 (1=0-20%)
Fc1cccc(Sc2ncc(Cl)s2)c1-c1cc(C(F)F)no1 [Compound 1.031, 5-[2-(5-chlorothiazol-2-yl)sulfanyl-6-fluoro-phenyl]-3-(difluoromethyl)isoxazole] | 4 (4=61-80%) | 2 (2=21-40%) | 3 (3=41-60%) | 3 (3=41-60%) | 2 (2=21-40%) | 2 (2=21-40%)
Fc1cccc(-c2cc(C(F)F)no2)c1Oc1ncc(Cl)s1 [Compound 1.010] | 4 (4=61-80%) | 3 (3=41-60%) | 4 (4=61-80%) | 5 (5=81-100%) | 4 (4=61-80%) | 4 (4=61-80%)
Fc1cccc(Oc2nc(C(F)(F)F)cs2)c1-c1cc(C(F)F)no1 [Compound 1.033] | 4 (4=61-80%) | 4 (4=61-80%) | 4 (4=61-80%) | 5 (5=81-100%) | 4 (4=61-80%) | 5 (5=81-100%)
Fc1cccc(Oc2ncc(Br)s2)c1-c1cc(C(F)F)no1 [Compound 1.004, 5-[2-(5-bromothiazol-2-yl)oxy-6-fluoro-phenyl]-3-(difluoromethyl)isoxazole] | 5 (5=81-100%) | 5 (5=81-100%) | 5 (5=81-100%) | 5 (5=81-100%) | 4 (4=61-80%) | 5 (5=81-100%)
FC(F)c1cc(-c2ccccc2Oc2ncc(Cl)s2)on1 [Compound 1.026] | 4 (4=61-80%) | 4 (4=61-80%) | 4 (4=61-80%) | 4 (4=61-80%) | 4 (4=61-80%) | 4 (4=61-80%)
FC(F)c1cc(-c2c(Br)cccc2Oc2ncc(C(F)F)s2)on1 [Compound 1.020] | 4 (4=61-80%) | 4 (4=61-80%) | 5 (5=81-100%) | 1 (1=0-20%) | 5 (5=81-100%) | 5 (5=81-100%)
C=Cc1cnc(Oc2cccc(F)c2-c2cc(C(F)F)no2)s1 [Compound 1.002, 3-(difluoromethyl)-5-[2-fluoro-6-(5-vinylthiazol-2-yl)oxy-phenyl]isoxazole] | 2 (2=21-40%) | 4 (4=61-80%) | 4 (4=61-80%) | 1 (1=0-20%) | 4 (4=61-80%) | 2 (2=21-40%)
Fc1cccc(Oc2nc(Br)cs2)c1-c1cc(C(F)F)no1 [Compound 1.007] | 5 (5=81-100%) | 4 (4=61-80%) | 5 (5=81-100%) | 5 (5=81-100%) | 3 (3=41-60%) | 5 (5=81-100%)
FC(F)c1cc(-c2c(Br)cccc2Oc2ncc(Cl)s2)on1 [Compound 1.023] | 5 (5=81-100%) | 5 (5=81-100%) | 5 (5=81-100%) | 5 (5=81-100%) | 5 (5=81-100%) | 5 (5=81-100%)
Fc1cccc(Oc2ncc(C(F)F)s2)c1-c1cc(C(F)F)no1 [Compound 1.001, 3-(difluoromethyl)-5-[2-[5-(difluoromethyl)thiazol-2-yl]oxy-6-fluoro-phenyl]isoxazole] | 5 (5=81-100%) | 5 (5=81-100%) | 5 (5=81-100%) | 5 (5=81-100%) | 5 (5=81-100%) | 5 (5=81-100%)
FC(F)c1cc(-c2c(Br)cccc2Oc2nc(Cl)c(Cl)s2)on1 [Compound 1.028] | 4 (4=61-80%) | 4 (4=61-80%) | 4 (4=61-80%) | 2 (2=21-40%) | 4 (4=61-80%) | 4 (4=61-80%)
N#Cc1cccc(Oc2ncc(Br)s2)c1-c1cc(C(F)F)no1 [Compound 1.013] | 5 (5=81-100%) | 2 (2=21-40%) | 3 (3=41-60%) | 2 (2=21-40%) | 4 (4=61-80%) | 4 (4=61-80%)
N#Cc1cccc(Oc2ncc(C(F)F)s2)c1-c1cc(C(F)F)no1 [Compound 1.014] | 3 (3=41-60%) | 3 (3=41-60%) | 4 (4=61-80%) | 3 (3=41-60%) | 5 (5=81-100%) | 5 (5=81-100%)
N#Cc1cccc(Oc2ncc(Cl)s2)c1-c1cc(C(F)F)no1 [Compound 1.012] | 5 (5=81-100%) | 3 (3=41-60%) | 4 (4=61-80%) | 2 (2=21-40%) | 4 (4=61-80%) | 5 (5=81-100%)
Fc1cccc(Oc2nc(Cl)c(Cl)s2)c1-c1cc(C(F)F)no1 [Compound 1.029] | 5 (5=81-100%) | 1 (1=0-20%) | 2 (2=21-40%) | 5 (5=81-100%) | 1 (1=0-20%) | 2 (2=21-40%)
Fc1cccc(Oc2nccs2)c1-c1cc(C(F)F)no1 [Compound 1.003] | 2 (2=21-40%) | 1 (1=0-20%) | 2 (2=21-40%) | 5 (5=81-100%) | 2 (2=21-40%) | 2 (2=21-40%)
FC(F)c1cc(-c2c(Cl)cccc2Oc2ncc(Br)s2)on1 [Compound 1.025] | 5 (5=81-100%) | 5 (5=81-100%) | 5 (5=81-100%) | 5 (5=81-100%) | 5 (5=81-100%) | 5 (5=81-100%)
Fc1cccc(Oc2nc(C(F)F)cs2)c1-c1cc(C(F)F)no1 [Compound 1.009] | 4 (4=61-80%) | 2 (2=21-40%) | 2 (2=21-40%) | 4 (4=61-80%) | 3 (3=41-60%) | 5 (5=81-100%)
Fc1cccc(Oc2nc(Cl)cs2)c1-c1cc(C(F)F)no1 [Compound 1.008] | 4 (4=61-80%) | 2 (2=21-40%) | 1 (1=0-20%) | 3 (3=41-60%) | 1 (1=0-20%) | 3 (3=41-60%)
